Test results published in ChEMBL document CHEMBL4184256, “Synthesis and biological evaluation of longanlactone analogues as neurotrophic agents” (Bioorg Med Chem Lett, 2018).
pIC50: −log10 of the molar value. Calls of active or inactive are those of the source. The rule behind the calls is not given here.

Legend:
N2a [1] = test: Neurotrophic activity in mouse Neuro2a cells assessed as increase in neurite length at 0.1 uM incubated for 48 hrs relative to untreated control; type: functional
N2a [2] = test: Cytotoxicity in mouse Neuro2a cells assessed as reduction in cell viability by MTT assay; type: cell-based
N2a [3] = test: Neurotrophic activity in mouse Neuro2a cells assessed as increase in neurite length at 0.01 uM incubated for 48 hrs relative to untreated control; type: functional
N2a [4] = test: Neurotrophic activity in mouse Neuro2a cells assessed as increase in BDNF mRNA expression at 0.01 uM incubated for 2 hrs by RT-qPCR method relative to untreated control
N2a [5] = test: Neurotrophic activity in mouse Neuro2a cells assessed as increase in NT3 mRNA expression at 0.01 uM incubated for 2 hrs by RT-qPCR method relative to untreated control
N2a [6] = test: Neurotrophic activity in mouse Neuro2a cells assessed as increase in BDNF mRNA expression at 0.1 uM incubated for 2 hrs by RT-qPCR method relative to untreated control
N2a [7] = test: Neurotrophic activity in mouse Neuro2a cells assessed as increase in NT3 mRNA expression at 0.1 uM incubated for 2 hrs by RT-qPCR method relative to untreated control

C#CC[C@@H]1C[C@H](n2cccc2C(=O)CC)C(=O)O1
Activity (N2a [1]): 9.47% | pIC50 (N2a [2]): 4.39 | Activity (N2a [3]): 11.63%

C#CC[C@H]1C[C@H](n2cccc2)C(=O)O1
Activity (N2a [1]): 14.56% | pIC50 (N2a [2]): < 4.00 | Activity (N2a [3]): 12.15%

CC(=O)c1cccn1[C@H]1C[C@H](CC#Cc2ccc([N+](=O)[O-])cc2)OC1=O
Activity (N2a [1]): 13.27% | pIC50 (N2a [2]): < 4.00 | Activity (N2a [3]): 1.43%

CC(=O)c1cccn1[C@H]1C[C@@H](Cc2cn([C@H]3C[C@H](n4cc(C)c(=O)[nH]c4=O)O[C@@H]3CO)nn2)OC1=O
Activity (N2a [1]): 6.61% | pIC50 (N2a [2]): 4.02 | Activity (N2a [3]): 3.67%

CC(=O)c1cccn1[C@H]1C[C@@H](Cc2cn(Cc3ccccc3)nn2)OC1=O
Activity (N2a [1]): 15.62% | pIC50 (N2a [2]): 4.04 | Activity (N2a [3]): 5.41%

C#CC[C@H]1C[C@H](n2cccc2C(=O)C(F)(F)F)C(=O)O1
Activity (N2a [1]): 22.22% | pIC50 (N2a [2]): 4.01 | Activity (N2a [3]): 7.76%

C#CC[C@@H]1C[C@H](n2cccc2)C(=O)O1
Activity (N2a [1]): 10.9% | pIC50 (N2a [2]): ≤ 4.00 | Activity (N2a [3]): 6.56%

C#CC[C@@H]1C[C@H](n2cccc2C(=O)C(F)(F)F)C(=O)O1
Activity (N2a [4]): Active | Activity (N2a [1]): 41.02% | pIC50 (N2a [2]): < 4.00 | Activity (N2a [5]): inactive | Activity (N2a [3]): 33.74%

C#CC[C@@H]1C[C@H](n2cccc2C(C)=O)C(=O)O1
Activity (N2a [6]): Active | Activity (N2a [7]): inactive | Activity (N2a [1]): 37.01% | pIC50 (N2a [2]): 3.92 | Activity (N2a [3]): 8.03%

CC(=O)c1cccn1[C@H]1C[C@H](Cc2cn([C@H]3C[C@H](n4cc(C)c(=O)[nH]c4=O)O[C@@H]3CO)nn2)OC1=O
Activity (N2a [1]): 14.8% | pIC50 (N2a [2]): 4.02 | Activity (N2a [3]): 9.52%

C#CC[C@H]1C[C@H](n2cccc2C(C)=O)C(=O)O1
Activity (N2a [1]): 20.95% | pIC50 (N2a [2]): < 4.00 | Activity (N2a [3]): 9.04%

CC(=O)c1cccn1[C@H]1C[C@H](Cc2cn(Cc3ccccc3)nn2)OC1=O
Activity (N2a [1]): 17.02% | pIC50 (N2a [2]): 4.17 | Activity (N2a [3]): -2.23%

C#CC[C@H]1C[C@H](n2cccc2C(=O)CC)C(=O)O1
Activity (N2a [1]): 9.5% | pIC50 (N2a [2]): 4.39 | Activity (N2a [3]): 4.63%

CC(=O)c1cccn1[C@H]1C[C@@H](CC#Cc2ccc([N+](=O)[O-])cc2)OC1=O
Activity (N2a [1]): 9.11% | pIC50 (N2a [2]): < 4.00 | Activity (N2a [3]): -7.58%
